Test system: red blood cells
Details: riboflavin and visible light, FIG. 4
Source text: Red blood cells were suspended in AS3 during a pathogen reduction procedure using riboflavin and visible light. […] AS3 contains sodium chloride, dextrose, adenine, sodium phosphate, sodium citrate and citric acid.

Cc1cc2nc3c(=O)[nH]c(=O)nc-3n(CC(O)C(O)C(O)CO)c2cc1C (stereo not shown) [riboflavin, 7,8-dimethyl-10-ribityl isoalloxazine]
% hemolysis of red blood cells: less than 2%
